According to patent US8324284B2, “Migrastatin analogs and uses thereof” (Sloan-Kettering Institute for Cancer Research, priority 2003, dated 2012):

Legend:
[1] = system: 4T1 tumor lung metastasis; assay: 4T1 tumor lung metastasis in syngeneic mice; type: in vivo, mouse; conditions: mean and standard deviation
Experimental: (§1) Female BALB/c mice (6-8 week old) were purchased from the Jackson Laboratory (Bar Harbor, Me.). All mice were housed at the Weill Medical College of Cornell University Animal Facilities in accordance with the Principles of Animal Care (NIH publication no. 85-23, revised 1985). 4T1 tumor cells (1×10^5) were injected subcutaneously into the abdominal mammary gland area of mice in 0.1 ml of a single-cell suspension in phosphate buffered saline (PBS) on Day 0. The dosage of tumor implantation was empirically determined to give rise to tumor of ˜10 mm in diameter in untreated wild type mice in 21-23 days. On Day 7, when the tumors averaged in size ˜4-5 mm in diameter, migrastatin analogs or control PBS saline were given every day by intraperitoneal injection at 10 mg/kg or 20 mg/kg per mouse until Day 25. On Day 28, the mice were sacrificed. This regiment of migrastatin analogs was well tolerated with no signs of overt toxicity. Every group included five mice. Primary tumors were measured using electronic calipers on the day when the mice were sacrificed. Tumor size was the square root of the product of two perpendicular diameters. Numbers of metastatic 4T1 cells in lung were determined by the clonogenic assay.^63 In brief, lungs were removed from each mouse on Day 28, finely minced and digested in 5 ml of enzyme cocktail containing 1×PBS and 1 mg/ml collagenase type IV for 2 hours at 37° C. on a platform rocker. After incubation, samples were filtered through 70 uM nylon cell strainers and washed twice with PBS. Resulting cells were suspended and plated serially diluted in 10 cm tissue culture dishes in medium RPMI1640 containing 60 uM thioguanine for clonogenic growth. 6-Thioguanine-resistant tumor cells formed foci after 14 days, at which time they were fixed with methanol and stained with 0.03% methylene blue for counting.
Treatment 4T1 tumor lung metastasis in syngeneic mice with migrastatin analogs (See, FIG. 4). 4T1 tumor cells (10^5) were injected s.c. in the abdominal mammary gland with 0.1 ml of a single-cell suspension. Macroketone or macrolactam at 10 mg/kg or 20 mg/kg was given i.p. on Day 7 when the tumor size was about 5 mm in diameter, and every day until Day 25. On Day 28, the mice were sacrificed. Each group comprised five mice. Lung metastasis was measured by the 6-thiogunine clonogenic assay. The mean and standard deviation are presented. In the control group (daily PBS injection), there were 61300±18900 colonies.

4T1 tumors = assay: 4T1 primary tumor growth in mice; type: in vivo, mouse; conditions: 10 mg/kg i.p. daily Day 7-25, final tumor size Day 28
Experimental: as §1, with “This regiment of migrastatin analogs was well tolerated with no signs of overt toxicity. Every group included five mice.” left out, “Tumor size was the square root of the product of two perpendicular diameters.” left out, “After incubation, samples were filtered through 70 uM nylon cell strainers and washed twice with PBS. Resulting cells were suspended and plated serially diluted in 10 cm tissue culture dishes in medium RPMI1640 containing 60 uM thioguanine for clonogenic growth. 6-Thioguanine-resistant tumor cells formed foci after 14 days, at which time they were fixed with methanol and stained with 0.03% methylene blue for counting.” left out
Effect of migrastatin analogs on 4T1 tumor cell growth (See, FIG. 5). […] On Day 28, primary tumors were measured using electronic calipers. […]

[2] = Metabolic stability in mouse plasma; type: in vitro ADME; conditions: mouse plasma/PBS, 37° C.; for stability (t1/2, mouse plasma), in words: 60 min of incubation, stable = intensity of HPLC signal unchanged
Experimental: Mouse Plasma Stability Studies (Table 5): HPLC conditions: The sample is injected and separated using an Inertsil ODS3 6u 3×150 mm column with a mobile phase of MeCN and water (50% for migrastatin) at a flow of 0.4 mL/min, monitored at 220 nm at 0.02 AUFS (the retention time for migrastatin is ca. 4 min, the identity of this peak was confirmed by mass spectral analysis). Incubation and sample preparation conditions: A solution (ca. 30 mM) of chemical compound (Table 5) in DMSO is prepared. 2 μL of the solution is added to a mixture containing 200 μL of mouse plasma and 800 μL of PBS. The resulting solution is put into a water bath at 37° C., and 100 μL of sample is withdrawn at 10, 20, 30, 45, and 60 min. The precipitate is removed by centrifugation and 20 μL of the supernatant is injected onto the HPLC.

[3] = system: 4T1 mouse breast tumor cells; assay: Wound-healing assay with 4T1 cells; type: cell-based; conditions: with serum, 200 μM, overnight
Excerpt: In the wound healing assay, standard scratches (i.e., wounds) were made through a confluent 4T1 cell layer. In the absence of serum, cells would not migrate across the empty space created by application of the scratch. Upon addition of serum containing migration-enabling factors, migration of 4T1 cells across the scratch was induced. Exposure to these cells to inventive compounds allowed the evaluation of the cell migration inhibitory activity of these compounds.
Wound-Healing Assay (See FIG. 6). 4T1 mouse breast tumor cells in RPMI-1640 medium containing 10% fetal bovine serum (FBS) were seeded into wells of 24-multiwell plates (Becton-Dickinson). After cells grew to confluence, wounds were made with sterile pipette tips. Cells were washed with Phosphate Buffered Saline (PBS) and refreshed with growth medium containing different concentrations of chemical compounds. After overnight incubation at 37° C., cells were fixed and photographed.

4T1 tumor cells = assay: Cell proliferation assay (MTT); conditions: up to 20 μM, 48 h
Experimental: Cell Proliferation Assay: 4×10^4 of 4T1 tumor cells in RPMI-1640 medium containing 10% FBS were seeded into wells of 96-multiwell plates (Becton-Dickinson) in the presence or absence of chemical compounds and then incubated at 37° C. for 48 h. An MTT kit (Cell Proliferation Kit I, Roche) (a colorimetric assay) was used to quantify cell proliferation and viability. The number of living cells, thus the total metabolic activity, directly correlates to the amount of purple formazan crystals formed (monitored by the absorbance).

HUVEC = assay: Tube formation assay; type: cell-based, human; conditions: minimal concentration causing definite disturbance of tube network; 16-18 h; tested 200, 100, 50, 25, 10 μM
Experimental: A protocol was designed based on the instructions from the provider (BD Bioscience, San Jose, Calif.). Briefly, wells of a 48 well culture dish were covert with 150 μL matrigel and the matrigel was gelatinized for 30 min at 37° C. A 80-90% confluent HUVEC (BD Bioscience, San Jose, Calif.) culture was trypsin treated, the detached cells were collected by centrifugation and resuspended in EGM-2 media (BD Bioscience, San Jose, Calif.). Cell concentration was adjusted to 100.000 cells/mL. 400 μL of the cell suspension were filled in the matrigel coated wells, and a solution of the inhibitor was added to the intended final concentration. The plates were incubated at 37° C. with 5% CO2 for 16-18 h. Media was removed, and the matrigel surface was washed twice with 500 μL PBS before cells were labeled with 250 μL […] Calcein AM (Pierce, Rockford, Ill.) in PBS for 30 min at 37° C. After two additional washing steps (500 μL PBS) cells were visualized under an inverted microscope. Fluorescence was excited at 488 nm and recorded at 538 nm. The minimum effect concentration was defined as the minimal inhibitor concentration that caused a definite disturbance of the complexity of the formed tube network.

KYSE-520 cells = assay: Wound healing (scratch) assay; type: cell-based; conditions: 28 to 30 h, tested 200, 100, 50, 25, 10 μM
Experimental: The wound healing assay was performed based on the method described by Nakae et al. (Nakae et al., J. Antibiotics (2000), 53, 1130-1136). Briefly, adherent cells were grown in a suitable media to confluence (e.g. KYSE-520 cells in RPMI-1640 with 10% FBS). Cells were starved for 24 h in serum free media. A scratch (ca. 0.5 mm) was applied and the cell layer was washed twice with PBS after removal of the media. Fresh, serum free media with the test compound at the desired concentration was added and the cells were incubated for 28 to 30 h at 37° C., 5% CO2. The scratch size was compared to that observed for cells exposed to 100 μM Migrastatin. Test compounds associated with a scratch size equal to or larger than that observed for cells exposed to 100 μM Migrastatin were deemed to have cell migration inhibitory activity at least equal to Migrastatin.

cell migration = assay: Chamber cell migration assay (preliminary); type: cell-based; conditions: 36 h, tested 200, 100, 50, 25, 10 μM
Experimental: Cells were grown in an appropriate media to 70 to 80% confluence and incubated in serum and growth factor free media for 24 h. Cells were detached by trypsin treatment, collected by centrifugation and resuspended in serum free media to a final concentration of 150,000 cells/mL. 400 μL of the cell suspension were loaded into a fibronectin coated insert for 24 well multidishes. 750 μL fully supplemented media were applied to the compartment under the insert. To both chambers the inhibitor was added at the intended concentration and the plates were incubated for 36 h at 37° C., 5% CO2. […] The resulting CyQuant assay solution was transferred to the cavities of a 96 well microtiter plate and the fluorescence signal was recorded in an appropriate reader. The CyQuant dye forms a highly fluorescent complex with DNA, thus the fluorescence signal is proportional to the number of cells that migrated through the membrane in the presence of the test compound (N^inh). […] The positive control fluorescent reading correlates with the number of cells that migrate through the membrane in the absence of inhibitor (N^+). […] The negative control fluorescent reading correlates with the number of cells that migrate through the membrane through non-directed processes (N^−). The anti-migratory effect of a test compound is determined by the ratio (N^inh−N^−)/(N^+−N^−).

Molecule | stability (t1/2, mouse plasma), in words [2] | inhibition of 4T1 cell migration across the scratch [3] | Minimum effect concentration (HUVEC) [µM] | Minimum effect concentration (KYSE-520 cells) [µM] | other results
COC1C=CCCCCC(=O)CCC(C)=CC(C)C1O (stereo not drawn) [macroketone (60), Macroketone] | – | – | – | – | lung metastasis, colonies (6-thioguanine clonogenic assay) ([1]; 10 mg/kg i.p. daily Day 7-25, Day 28): 3875±2525 colonies; lung metastasis, colonies (6-thioguanine clonogenic assay) ([1]; 20 mg/kg i.p. daily Day 7-25, Day 28): 650±575 colonies; effect on tumor growth in mice (4T1 tumors): minor effect on tumor growth
COC1C=CCCCCC(=O)OCC(C)=CC(C)C1O (stereo not drawn) [macrolactone (48), Macrolactone] | hydrolyzed rapidly | almost completely inhibited cell migration across the scratch | – | – | stability (t1/2, mouse plasma) [2]: <5 min; cytotoxic or anti-proliferative effects on 4T1 cells (4T1 tumor cells): did not have any cytotoxic or anti-proliferative effects up to 20 μM
CO[C@H]1/C=C/CC/C=C/C(=O)O[C@H]([C@H](C)C(=O)CCCC2CC(=O)NC(=O)C2)/C(C)=C\[C@@H](C)[C@@H]1O [migrastatin (1), Migrastatin] | stable^1 | not as great | 100 | 100 | IC50 (cell migration): 200 µM; stability (t1/2, mouse plasma), in words ([2]; listed as migrastatin): completely inert toward lactone opening
N-Methyl-migrastatin | – | – | 200 | 100 | –
